Assay results taken from ChEMBL document CHEMBL1201862, “PubChem BioAssay data set” (2004).
Calls of active or inactive are those of the source.

Tests used:
[1] = target: Sphingosine 1-phosphate receptor 4 (Homo sapiens, UniProt O95977); test: Fluorescence dose response cell-based high throughput screening assay for agonists of the Sphingosine 1-Phosphate Receptor 4 (S1P4). [Related pubchem assays: 1509 (Primary screen.), 1523 (Confirmation screen in triplicates.)]; format: functional
[2] = target: T1, Sphingosine 1-phosphate receptor 2 (Homo sapiens, UniProt O95136); test: Dose Response Cell Based Assay for Agonists of the S1P2 Receptor. [Related pubchem assays: 729, 736, 843 ]; format: functional
Estrogen receptor = target: T2, Estrogen receptor (Homo sapiens, UniProt P03372);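 note: potency for inhibiting coactivator peptide recruitment to the receptor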
T2 sequence (P03372 whole entry): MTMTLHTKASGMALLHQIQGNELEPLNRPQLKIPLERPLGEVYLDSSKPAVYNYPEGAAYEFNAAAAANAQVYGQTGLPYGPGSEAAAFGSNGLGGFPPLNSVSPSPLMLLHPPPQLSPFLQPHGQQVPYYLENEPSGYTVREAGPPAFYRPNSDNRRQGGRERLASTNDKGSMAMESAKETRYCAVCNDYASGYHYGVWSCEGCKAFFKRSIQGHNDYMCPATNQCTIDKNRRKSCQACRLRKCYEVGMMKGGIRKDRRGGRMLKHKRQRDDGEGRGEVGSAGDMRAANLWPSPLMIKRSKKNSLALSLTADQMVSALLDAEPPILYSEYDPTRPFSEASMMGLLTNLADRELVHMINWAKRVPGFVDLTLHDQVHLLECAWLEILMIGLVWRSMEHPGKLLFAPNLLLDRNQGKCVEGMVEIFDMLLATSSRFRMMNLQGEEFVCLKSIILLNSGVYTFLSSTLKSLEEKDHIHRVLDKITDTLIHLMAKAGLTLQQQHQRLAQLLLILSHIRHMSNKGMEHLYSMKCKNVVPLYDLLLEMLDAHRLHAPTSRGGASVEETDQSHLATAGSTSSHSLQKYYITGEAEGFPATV

[3] = target: Sphingosine 1-phosphate receptor 1 (Homo sapiens, UniProt P21453); test: Fluorescence-based counterscreen assay for S1P4 agonists: Cell-based dose response high throughput screening assay to identify agonists of the Sphingosine 1-Phosphate Receptor 1 (S1P1). [Related pubchem assays (depositor defined):AID1509, AID1523, AID1801, AID463107, AID463118, AID463119, AID463122, AID463123, AID463129, AID463225, AID504400, AID504460]; format: functional
Estrogen receptor beta [4] = target: T3, Estrogen receptor beta (Homo sapiens, UniProt Q92731);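 note: recombinant ER-beta bound to coactivator SRC1 peptide in presence of estradiol agonist; inhibitors block coactivator peptide binding and lower the FRET signal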
Estrogen receptor beta [5] = target: T3, Estrogen receptor beta; test: ERβ–SRC-3 coactivator interaction inhibitors, confirmation, orthogonal assay, biochemical, ELISA, streptavidin-HRP readout (AID 1060)
[6] = Luminescence Cell-Based Dose Response HTS to Identify Activators of Luciferase Translation or Activity in H4 […] Cells. [Related pubchem assays: 1829 (Project Summary), 1814 (Primary HTS)]; format: functional
H4 = test: Luminescence Cell-Based Dose Response HTS to Identify Activators of 5'UTR Stem-Loop Driven Prion Protein mRNA Translation in H4 Neuroglioblastoma Cells. [Related pubchem assays: 1829 (Project Summary), 1814 (Primary HTS)]; format: functional; settings: Homo sapiens
[7] = Luminescence Cell-Based Dose Response to Identify Activators of Luciferase Translation or Activity in H4-C Neuroglioblastoma Cells. [Related pubchem assays: 1829 (Project Summary), 1814 (Primary HTS)]; format: functional
[8] = Luminescence Cell-Based Dose Response to Identify Activators of 5'UTR Stem-Loop Driven Prion Protein mRNA Translation in H4-C Neuroglioblastoma Cells. [Related pubchem assays: 1829 (Project Summary), 1814 (Primary HTS)]; format: functional
[9] = Luminescence Cell-Based Dose Confirmation to Identify Activators of 5'UTR Stem-Loop Driven Alpha-Synuclein mRNA Translation in H4 Neuroglioblastoma Cells. [Related pubchem assays: 1829 (Project Summary), 1814 (Primary HTS)]; format: functional
[10] = target: T4, Zinc finger protein mex-5 (Caenorhabditis elegans, UniProt Q9XUB2); test: MEX-5/TCR-2 RNA interaction inhibitors, dose response, biochemical, C. elegans, fluorescence polarization (AID 1960)
T4 sequence (Q9XUB2 whole entry): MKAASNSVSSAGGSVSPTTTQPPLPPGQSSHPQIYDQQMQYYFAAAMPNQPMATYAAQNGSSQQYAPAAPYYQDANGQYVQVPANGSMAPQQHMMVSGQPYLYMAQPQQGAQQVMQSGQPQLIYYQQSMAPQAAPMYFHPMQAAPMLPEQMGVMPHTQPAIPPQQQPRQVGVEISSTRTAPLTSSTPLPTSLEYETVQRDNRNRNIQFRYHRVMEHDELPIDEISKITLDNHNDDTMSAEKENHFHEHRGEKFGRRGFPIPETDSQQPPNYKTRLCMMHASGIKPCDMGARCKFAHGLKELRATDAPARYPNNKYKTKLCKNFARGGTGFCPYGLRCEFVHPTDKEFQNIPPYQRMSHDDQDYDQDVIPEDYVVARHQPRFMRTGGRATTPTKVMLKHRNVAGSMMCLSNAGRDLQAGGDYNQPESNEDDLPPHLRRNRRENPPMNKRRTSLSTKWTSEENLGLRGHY

[11] = target: T5, RNA-binding protein pos-1 (Caenorhabditis elegans, UniProt G5EF15); test: inhibitors of POS-1/mex-3 RNA binding, dose response, biochemical, fluorescence polarization (AID 1964);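 note: purified POS-1 fused to maltose binding protein made in E. coli; potency of compounds blocking POS-1 binding to fluorescent RNA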
T5 sequence (G5EF15 whole entry): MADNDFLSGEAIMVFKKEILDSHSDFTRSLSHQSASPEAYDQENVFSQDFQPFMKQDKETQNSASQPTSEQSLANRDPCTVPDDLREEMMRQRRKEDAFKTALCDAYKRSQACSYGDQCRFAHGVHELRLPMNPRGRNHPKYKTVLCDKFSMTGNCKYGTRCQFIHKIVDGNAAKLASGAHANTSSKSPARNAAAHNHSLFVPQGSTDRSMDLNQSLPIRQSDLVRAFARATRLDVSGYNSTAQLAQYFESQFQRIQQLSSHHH

Streptococcus = test: Group A Streptococcus viability loss, dose response, counter-screen for streptokinase expression inhibitor project, luminescence, BacTiterGlo (AID 1915); format: functional, organism-based;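 note: potency for reduction of bacterial viability or growth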
[12] = target: T1, Sphingosine 1-phosphate receptor 2; test: Dose Response Cell Based Assay for Antagonists of the S1P2 Receptor. [Related pubchem assays: 856, 736 ]; format: functional
[13] = Vero cell cytotoxicity, dose response, cytotoxicity control for Vif-APOBEC3G degradation inhibitor project, Vero cells (AID 1117358); format: functional; settings: Human immunodeficiency virus 1, Vero
Streptokinase A = target: T6, Streptokinase A (Streptococcus pyogenes serotype M1, UniProt P10520); test: S. pyogenes streptokinase expression inhibitors, potency, dose response, plasminogen activation absorbance, OD405 (AID 1914); format: functional, Streptococcus pyogenes M1 GAS;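 note: secreted streptokinase activity via plasminogen activation per viability signal from cell pellet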
T6 sequence (P10520 whole entry): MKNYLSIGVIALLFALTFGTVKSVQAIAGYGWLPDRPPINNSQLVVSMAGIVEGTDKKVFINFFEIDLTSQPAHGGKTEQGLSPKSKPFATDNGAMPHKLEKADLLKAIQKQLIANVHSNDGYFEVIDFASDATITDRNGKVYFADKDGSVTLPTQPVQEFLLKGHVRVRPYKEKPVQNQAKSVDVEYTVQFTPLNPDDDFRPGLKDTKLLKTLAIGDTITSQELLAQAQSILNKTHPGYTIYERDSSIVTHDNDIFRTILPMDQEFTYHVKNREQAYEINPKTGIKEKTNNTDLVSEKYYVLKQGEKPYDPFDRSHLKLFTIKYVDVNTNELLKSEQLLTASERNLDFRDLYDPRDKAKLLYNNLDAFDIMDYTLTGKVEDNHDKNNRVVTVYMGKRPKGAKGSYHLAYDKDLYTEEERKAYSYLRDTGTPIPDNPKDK

[14] = system: Streptococcus sp. 'group A'; test: growth inhibition of control SK(-) GAS strain, dose response, counter-screen for streptokinase expression inhibitor project, luminescence, kanamycin, BacTiterGlo, confirmation (AID 1900); format: functional, organism-based
[15] = target: Mitogen-activated protein kinase 10 (Homo sapiens, UniProt P53779); test: Dose response biochemical screening assay for inhibitors of c-Jun N-Terminal Kinase 3 (JNK3). [Related pubchem assays: 746 ]
[16] = M. tuberculosis growth inhibition, HTS (AID 449762); format: functional
[17] = target: T7, Mannose-6-phosphate isomerase (Homo sapiens, UniProt P34949); test: human PMI inhibitors, high substrate, primary screen, biochemical, fluorescence intensity, high mannose 6-phosphate (AID 1220)
T7 sequence (P34949 whole entry): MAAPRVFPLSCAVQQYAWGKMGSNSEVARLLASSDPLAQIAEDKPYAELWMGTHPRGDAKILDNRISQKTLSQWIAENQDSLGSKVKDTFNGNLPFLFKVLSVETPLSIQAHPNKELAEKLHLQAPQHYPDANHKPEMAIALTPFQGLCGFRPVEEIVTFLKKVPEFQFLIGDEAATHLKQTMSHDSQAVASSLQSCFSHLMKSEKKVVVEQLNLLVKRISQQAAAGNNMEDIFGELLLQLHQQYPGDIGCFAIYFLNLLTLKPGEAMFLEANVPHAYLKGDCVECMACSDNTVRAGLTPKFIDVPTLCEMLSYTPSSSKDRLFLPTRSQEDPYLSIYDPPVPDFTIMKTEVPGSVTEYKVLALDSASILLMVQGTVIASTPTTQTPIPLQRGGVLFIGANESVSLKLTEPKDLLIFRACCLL

[18] = growth suppression of beta-catenin-knockout colon cells, dose response, cell-based, HCT116, human colon tumor (AID 1045); format: functional;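 note: HCT116 colon tumor cells with beta catenin knocked out; cells exposed to compound for 60 hours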
Galanin receptor type 2 = Galanin receptor type 2 (Homo sapiens, UniProt O43603); test: Dose Response cell-based high-throughput screening assay to identify agonists of galanin receptor 2 (GALR2). [Related pubchem assays: 864 ]; format: functional
[19] = growth suppression of PTEN-null colon cells, dose response, cell-based, HCT116 PTEN knockout (AID 1047); format: functional;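 note: HCT116 colon tumor cells with PTEN knocked out; cells exposed to compound for 60 hours before readout; potency for loss of cell viability measured by luminescence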
Large T antigen = Large T antigen (Simian virus 40, UniProt P03070); format: functional, Betapolyomavirus macacae;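 note: Confirmatory-stage PubChem screen for compounds that inhibit SV40 T antigen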
INS1 = test: beta cell apoptosis inhibitors, cytokine rescue, dose response, luminescence, retest (AID 449756); format: functional, cell-based; settings: Rattus norvegicus;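 note: cell death triggered by IL-1 beta plus TNF-alpha plus IFN-gamma mixture; protective hits raise ATP signal compared with cytokine alone wells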
[20] = target: Heat shock protein HSP 90-alpha (Homo sapiens, UniProt P07900); format: functional, organism-based
Danio rerio = test: In Vivo Angiogenesis Dose-Response Confirmation. [Related pubchem assays: 732 (Assay preceding this confirmatory assay.)]; format: functional, organism-based

T3 sequence (Q92731 whole entry): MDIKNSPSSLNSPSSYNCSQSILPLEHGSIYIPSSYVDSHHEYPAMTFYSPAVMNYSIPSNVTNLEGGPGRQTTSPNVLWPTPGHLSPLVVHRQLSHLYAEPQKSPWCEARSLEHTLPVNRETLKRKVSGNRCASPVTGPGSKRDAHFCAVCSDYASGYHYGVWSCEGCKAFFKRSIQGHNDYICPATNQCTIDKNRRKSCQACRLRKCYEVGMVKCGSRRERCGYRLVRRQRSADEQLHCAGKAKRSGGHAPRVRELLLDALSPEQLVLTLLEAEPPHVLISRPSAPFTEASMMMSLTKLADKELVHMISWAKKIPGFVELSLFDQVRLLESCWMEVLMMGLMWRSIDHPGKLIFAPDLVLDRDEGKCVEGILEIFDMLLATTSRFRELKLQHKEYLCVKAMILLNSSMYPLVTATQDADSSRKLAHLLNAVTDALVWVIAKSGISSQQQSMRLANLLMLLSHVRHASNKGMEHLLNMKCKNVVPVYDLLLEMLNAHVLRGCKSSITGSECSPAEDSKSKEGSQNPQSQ
T1 sequence (O95136 whole entry): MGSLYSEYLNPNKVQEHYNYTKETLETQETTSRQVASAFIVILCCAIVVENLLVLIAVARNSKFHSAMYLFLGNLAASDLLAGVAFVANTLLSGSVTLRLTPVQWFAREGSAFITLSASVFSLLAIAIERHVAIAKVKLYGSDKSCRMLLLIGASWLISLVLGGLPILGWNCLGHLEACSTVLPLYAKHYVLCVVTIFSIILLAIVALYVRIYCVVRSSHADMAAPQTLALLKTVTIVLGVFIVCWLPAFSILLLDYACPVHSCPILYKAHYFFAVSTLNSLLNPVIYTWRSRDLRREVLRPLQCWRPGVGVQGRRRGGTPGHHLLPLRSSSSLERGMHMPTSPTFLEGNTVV
Sequence of Galanin receptor type 2 (O43603 whole entry): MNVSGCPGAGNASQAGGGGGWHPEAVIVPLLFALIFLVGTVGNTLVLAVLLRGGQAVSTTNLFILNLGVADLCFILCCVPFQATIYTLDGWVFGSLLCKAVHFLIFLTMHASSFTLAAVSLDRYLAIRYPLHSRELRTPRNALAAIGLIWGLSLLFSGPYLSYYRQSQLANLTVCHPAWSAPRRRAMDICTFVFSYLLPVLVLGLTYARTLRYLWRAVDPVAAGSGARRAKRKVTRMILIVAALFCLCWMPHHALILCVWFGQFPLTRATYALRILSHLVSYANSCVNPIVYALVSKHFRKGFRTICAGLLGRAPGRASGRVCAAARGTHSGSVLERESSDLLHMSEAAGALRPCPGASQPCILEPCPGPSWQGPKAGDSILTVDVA
Sequence of Large T antigen (P03070 whole entry): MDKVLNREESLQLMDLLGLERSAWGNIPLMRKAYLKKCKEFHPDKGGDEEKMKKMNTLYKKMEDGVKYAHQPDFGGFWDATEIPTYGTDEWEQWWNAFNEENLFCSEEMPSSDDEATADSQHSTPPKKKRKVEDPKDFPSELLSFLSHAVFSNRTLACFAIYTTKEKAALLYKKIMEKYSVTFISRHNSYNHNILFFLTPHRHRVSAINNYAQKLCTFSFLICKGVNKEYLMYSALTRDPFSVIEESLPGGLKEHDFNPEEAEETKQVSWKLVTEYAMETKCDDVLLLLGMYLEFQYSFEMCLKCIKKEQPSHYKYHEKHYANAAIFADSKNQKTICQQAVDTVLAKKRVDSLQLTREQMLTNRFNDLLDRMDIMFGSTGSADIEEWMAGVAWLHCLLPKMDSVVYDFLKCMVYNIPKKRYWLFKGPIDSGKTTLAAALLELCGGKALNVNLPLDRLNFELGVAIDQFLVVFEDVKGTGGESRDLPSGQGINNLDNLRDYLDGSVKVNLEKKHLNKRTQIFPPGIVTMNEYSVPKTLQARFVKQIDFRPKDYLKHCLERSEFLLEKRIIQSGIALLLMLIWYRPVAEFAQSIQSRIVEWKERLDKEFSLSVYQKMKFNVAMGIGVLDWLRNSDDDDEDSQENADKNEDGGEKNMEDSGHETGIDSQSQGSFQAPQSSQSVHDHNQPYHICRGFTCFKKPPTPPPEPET
Sequence of Sphingosine 1-phosphate receptor 4 (O95977 whole entry): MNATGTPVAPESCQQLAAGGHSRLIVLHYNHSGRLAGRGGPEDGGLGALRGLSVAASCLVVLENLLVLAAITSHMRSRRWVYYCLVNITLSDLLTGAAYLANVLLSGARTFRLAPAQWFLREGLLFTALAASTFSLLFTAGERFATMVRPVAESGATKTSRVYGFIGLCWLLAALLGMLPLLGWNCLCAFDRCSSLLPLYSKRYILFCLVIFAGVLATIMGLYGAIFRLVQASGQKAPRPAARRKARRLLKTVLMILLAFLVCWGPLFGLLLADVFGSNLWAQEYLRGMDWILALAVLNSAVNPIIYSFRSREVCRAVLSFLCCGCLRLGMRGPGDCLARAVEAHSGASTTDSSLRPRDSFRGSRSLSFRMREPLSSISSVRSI
Sequence of Sphingosine 1-phosphate receptor 1 (P21453 whole entry): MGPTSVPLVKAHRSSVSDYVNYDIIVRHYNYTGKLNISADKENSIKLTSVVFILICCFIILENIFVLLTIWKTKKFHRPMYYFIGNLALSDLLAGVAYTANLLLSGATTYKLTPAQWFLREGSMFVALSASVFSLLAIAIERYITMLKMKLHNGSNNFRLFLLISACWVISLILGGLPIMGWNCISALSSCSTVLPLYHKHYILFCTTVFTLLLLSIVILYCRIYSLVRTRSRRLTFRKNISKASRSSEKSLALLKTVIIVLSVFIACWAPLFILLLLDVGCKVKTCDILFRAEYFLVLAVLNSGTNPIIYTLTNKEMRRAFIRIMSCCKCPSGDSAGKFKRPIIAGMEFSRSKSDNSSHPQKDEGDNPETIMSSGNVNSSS
Sequence of Mitogen-activated protein kinase 10 (P53779 whole entry): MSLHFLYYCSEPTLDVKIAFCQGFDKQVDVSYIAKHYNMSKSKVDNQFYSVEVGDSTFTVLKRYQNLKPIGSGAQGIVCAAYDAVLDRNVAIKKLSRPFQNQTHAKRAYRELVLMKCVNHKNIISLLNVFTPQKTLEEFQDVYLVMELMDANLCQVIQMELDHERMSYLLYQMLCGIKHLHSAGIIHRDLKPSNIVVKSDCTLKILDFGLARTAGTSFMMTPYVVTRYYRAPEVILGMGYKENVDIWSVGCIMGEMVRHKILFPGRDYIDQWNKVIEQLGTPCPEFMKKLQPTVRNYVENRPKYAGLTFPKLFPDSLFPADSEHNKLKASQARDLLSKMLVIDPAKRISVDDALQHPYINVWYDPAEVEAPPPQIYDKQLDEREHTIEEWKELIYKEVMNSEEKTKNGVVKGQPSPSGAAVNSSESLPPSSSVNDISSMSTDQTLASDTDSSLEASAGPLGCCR

In the case of `C=CCn1c(=O)c(C#N)cc2c(=O)n3ccccc3nc21`, the EC50 [1] is reported as 6.15 µM (active), the EC50 [2] is reported as 64.4 µM (not active) and the IC50 (Estrogen receptor) is reported as 44.7 µM (not active). For the same molecule, the EC50 [3] was 24.6 µM (inactive), the IC50 (Estrogen receptor beta [4]) was 21.1 µM (active) and the IC50 (Estrogen receptor beta [5]) was < 0.023 µM (not active).
With `O=C(Nc1ccc2oc(=O)ccc2c1)c1cc2ccccc2o1` the EC50 [6] was < 0.1 µM (active), the EC50 (H4) was > 120 µM (not active) and the EC50 [7] was 0.317 µM (active). For the same molecule, the EC50 [8] was 0.579 µM (active) and the EC50 [9] was 0.304 µM (active).
In the case of `Cc1cccc(NC2=Nc3ccccc3N3C2=Nc2c(c(C)nn2-c2ccccc2)C3c2ccc(O)c(O)c2)c1` (stereo not drawn), the EC50 [10] is reported as 28.3 µM (active), the EC50 [11] is reported as 46.4 µM (active) and the EC50 (Streptococcus) is reported as 3.2 µM (active). The IC50 [12] was 4.37 µM (active), the CC50 [13] was 17.4 µM (active) and the EC50 (Streptokinase A) was > 150 µM (not active). For the same molecule, the EC50 [14] was 1.54 µM (active).
With `COc1cc(C(=O)Nc2nccs2)ccc1OCc1c(C)noc1C` the IC50 [15] was > 31 µM (not active).
In the case of `O=C(O)c1ccccc1C(=O)NNc1ccc(Cl)cc1Cl`, the IC50 [16] is reported as > 100 µM (active).
In the case of `CC1=C/C(=N\OS(=O)(=O)c2ccccc2)C(C(C)C)=CC1=O`, the IC50 [17] is reported as 6.04 µM (active), the EC50 [18] is reported as 3.13 µM (active) and the EC50 (Galanin receptor type 2) is reported as > 55.7 µM (not active). For the same molecule, the EC50 [19] was 2.93 µM (active), the IC50 (Large T antigen) was 48.2 µM (active) and the AC50 (INS1) was 3.88 µM (active). For the same molecule, the AC50 [20] was 0.751 µM (active).
In the case of `O=C1Nc2ccccc2/C1=C1/Nc2ccc(Br)cc2/C1=N\O`, the IC50 (Danio rerio) is reported as > 10 µM (not active).
